Laboratory results: the supplement of paper PMC11061612

Experiments:
[1] = test system: SNU-61 (Colorectal Carcinoma); experiment: combination Emax (second highest fraction inhibited in the dose matrix, 72 h); higher = more inhibition; extreme values may be limits of the assay
In short: (§1)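 Cell lines grown in DMEM/F12 or RPMI with 10% FBS were plated in 1536-well plates and held 24 hours at 37°C, 5% CO2 before 72 hours of exposure to two-drug dose matrices, with DMSO typically at 0.2%. CellTiter-Glo 2.0 luminescence gave viability, which was converted to inhibition. Vehicle wells were set to 0 and blank wells to 1. Combination Emax is the second-highest inhibition in the matrix, and Bliss excess is the observed combination effect minus the expected EA + EB − EA·EB, where EA and EB are the single-agent effects.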

[2] = test system: EFM-192A (Breast Carcinoma); experiment: as above
In short: as §1

[3] = test system: HOP-92 (Non-Small Cell Lung Carcinoma); experiment: as above
In short: as §1

A172 (Glioblastoma) [4] = experiment: as above
In short: as §1

MCF7 (Breast Carcinoma) [5] = experiment: as above
In short: as §1

[6] = test system: SKN-3 (Head and Neck Carcinoma); experiment: as above
In short: as §1

HuO9 (Osteosarcoma) [7] = experiment: as above
In short: as §1

[8] = test system: 647-V (Bladder Carcinoma); experiment: as above
In short: as §1

[9] = test system: KG-1 (Acute Myeloid Leukemia); experiment: as above
In short: as §1

[10] = test system: RCC10RGB (Kidney Carcinoma); experiment: as above
In short: as §1

[11] = test system: ETK-1 (Biliary Tract Carcinoma); experiment: as above
In short: as §1

[12] = test system: PA-TU-8902 (Pancreatic Carcinoma); experiment: as above
In short: as §1

[13] = test system: HCC-827 (Lung Adenocarcinoma); experiment: as above
In short: as §1

[14] = test system: NCI-H1688 (Small Cell Lung Carcinoma); experiment: as above
In short: as §1

[15] = test system: U-118-MG (Low Grade Glioma); experiment: as above
In short: as §1

[16] = test system: JHH-6 (Hepatocellular Carcinoma); experiment: as above
In short: as §1

[17] = test system: GDM-1 (Acute Myeloid Leukemia); experiment: as above
In short: as §1

[18] = test system: HCC1143 (Breast Carcinoma); experiment: as above
In short: as §1

[19] = test system: MES-SA (Other Solid Carcinomas); experiment: as above
In short: as §1

[20] = test system: TYK-nu (Ovarian Carcinoma); experiment: as above
In short: as §1

[21] = test system: SNU-61 (Colorectal Carcinoma); experiment: Bliss excess, mean over the matrix (fraction); higher = more synergy
In short: as §1

[22] = test system: EFM-192A (Breast Carcinoma); experiment: as above
In short: as §1

[23] = test system: HOP-92 (Non-Small Cell Lung Carcinoma); experiment: as above
In short: as §1

A172 (Glioblastoma) [24] = experiment: as above
In short: as §1

MCF7 (Breast Carcinoma) [25] = experiment: as above
In short: as §1

[26] = test system: SKN-3 (Head and Neck Carcinoma); experiment: as above
In short: as §1

HuO9 (Osteosarcoma) [27] = experiment: as above
In short: as §1

[28] = test system: 647-V (Bladder Carcinoma); experiment: as above
In short: as §1

[29] = test system: KG-1 (Acute Myeloid Leukemia); experiment: as above
In short: as §1

[30] = test system: RCC10RGB (Kidney Carcinoma); experiment: as above
In short: as §1

[31] = test system: ETK-1 (Biliary Tract Carcinoma); experiment: as above
In short: as §1

[32] = test system: PA-TU-8902 (Pancreatic Carcinoma); experiment: as above
In short: as §1

[33] = test system: HCC-827 (Lung Adenocarcinoma); experiment: as above
In short: as §1

[34] = test system: NCI-H1688 (Small Cell Lung Carcinoma); experiment: as above
In short: as §1

[35] = test system: U-118-MG (Low Grade Glioma); experiment: as above
In short: as §1

[36] = test system: JHH-6 (Hepatocellular Carcinoma); experiment: as above
In short: as §1

[37] = test system: GDM-1 (Acute Myeloid Leukemia); experiment: as above
In short: as §1

[38] = test system: HCC1143 (Breast Carcinoma); experiment: as above
In short: as §1

[39] = test system: MES-SA (Other Solid Carcinomas); experiment: as above
In short: as §1

[40] = test system: TYK-nu (Ovarian Carcinoma); experiment: as above
In short: as §1
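Throughout, for Bliss excess, mean over the matrix: after 72 h of two-drug dosing.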

SMILES | combination Emax [1] | combination Emax [2] | combination Emax [3] | combination Emax (A172 (Glioblastoma) [4]) | combination Emax (MCF7 (Breast Carcinoma) [5]) | combination Emax [6] | combination Emax (HuO9 (Osteosarcoma) [7]) | combination Emax [8] | combination Emax [9] | combination Emax [10] | combination Emax [11] | combination Emax [12] | combination Emax [13] | combination Emax [14] | combination Emax [15] | combination Emax [16] | combination Emax [17] | combination Emax [18] | combination Emax [19] | combination Emax [20] | Bliss excess [21] | Bliss excess [22] | Bliss excess [23] | Bliss excess (A172 (Glioblastoma) [24]) | Bliss excess (MCF7 (Breast Carcinoma) [25]) | Bliss excess [26] | Bliss excess (HuO9 (Osteosarcoma) [27]) | Bliss excess [28] | Bliss excess [29] | Bliss excess [30] | Bliss excess [31] | Bliss excess [32] | Bliss excess [33] | Bliss excess [34] | Bliss excess [35] | Bliss excess [36] | Bliss excess [37] | Bliss excess [38] | Bliss excess [39] | Bliss excess [40]
C[C@@H](c1ccc2nccn2c1)n1nnc2ncc(-c3cnn(C)c3)nc21 [Savolitinib] + CN(CC[C@H](CSC1=CC=CC=C1)NC2=C(C=C(C=C2)S(=O)(=O)NC(=O)C3=CC=C(C=C3)N4CCC(CC4)[C@H](C5=CC=CC=C5C6=CC=C(C=C6)Cl)O)S(=O)(=O)C(F)(F)F)CCO [AZD4320] (first compound max 1 µM, 7x7, partner max 1 µM) | 0.183 | 0.258 | 0.888 | 0.112 | 0.162 | 0.187 | 0.745 | 0.15 | 0.873 | 0.33 | 0.181 | 0.26 | 0.236 | 0.538 | 0.402 | 0.0904 | 1 | 0.268 | 0.152 | 0.283 | -0.0357 | 0.0065 | -0.002 | -0.0551 | -0.0156 | -0.0338 | -0.0704 | -0.0378 | -0.0251 | -0.048 | -0.0216 | -0.0909 | -0.0001 | 0.0359 | -0.0222 | -0.0639 | -0.0256 | 0.0021 | -0.0197 | -0.03
COc1nnc2ccc(N3CCC(c4ccc(OCCN5CCN(C)C(=O)[C@H]5C)cc4)CC3)nn12 [AZD5153] + CN(CC[C@H](CSC1=CC=CC=C1)NC2=C(C=C(C=C2)S(=O)(=O)NC(=O)C3=CC=C(C=C3)N4CCC(CC4)[C@H](C5=CC=CC=C5C6=CC=C(C=C6)Cl)O)S(=O)(=O)C(F)(F)F)CCO [AZD4320] (first compound max 1 µM, 7x7, partner max 1 µM) | 0.392 | 0.308 | 0.936 | 0.568 | 0.699 | 0.452 | 0.938 | 0.513 | 1 | 0.548 | 0.48 | 0.269 | 0.483 | 0.509 | 0.417 | 0.521 | 1 | 0.454 | 0.393 | 0.628 | -0.005 | 0.0355 | 0.0252 | 0.037 | -0.0031 | -0.0093 | 0.028 | 0.0463 | 0.0754 | -0.0004 | 0.0015 | 0.0058 | 0.0292 | -0.0021 | 0.0051 | -0.0296 | 0.0276 | 0.0577 | 0.0545 | 0.0168
CC(=O)c1c(C)c2cnc(Nc3ccc(N4CCNCC4)cn3)nc2n(C2CCCC2)c1=O [Palbociclib] + CN(CC[C@H](CSC1=CC=CC=C1)NC2=C(C=C(C=C2)S(=O)(=O)NC(=O)C3=CC=C(C=C3)N4CCC(CC4)[C@H](C5=CC=CC=C5C6=CC=C(C=C6)Cl)O)S(=O)(=O)C(F)(F)F)CCO [AZD4320] (first compound max 10 µM, 7x7, partner max 1 µM) | 0.136 | 0.165 | 0.891 | 0.647 | 0.45 | 0.277 | 0.841 | 0.211 | 0.984 | 0.667 | 0.292 | 0.323 | 0.288 | 0.657 | 0.466 | 0.381 | 1 | 0.332 | 0.445 | 0.37 | -0.0753 | -0.041 | -0.0491 | -0.115 | -0.0486 | -0.058 | 0.0272 | -0.0393 | 0.0673 | -0.0344 | -0.0826 | -0.085 | -0.0307 | -0.0438 | -0.0302 | -0.0496 | -0.0087 | -0.0178 | -0.0374 | -0.0257
